In the assay the test system is human IgE myeloma protein. Nature of the assay: Human IgE ELISA of guinea pig immune sera. The arrangement: species or system guinea pigs. The settings on record: in vivo. The protocol:
These peptide immunogens were used to immunize groups of 3 guinea pigs using 100 μg/dose, formulated in CFA at week 0, IFA at weeks 3 and 6, and administered intramuscularly. For comparison, a group of two animals were immunized with a peptide/KLH carrier protein conjugate at 200 μg/dose, similarly administered. ELISA results of serum samples collected at week 8 are shown. In the ELISA a human IgE myeloma protein (American Biosystem, Inc. cat no. A113) was used as the solid-phase immunoadsorbant. The procedure used was identical to the peptide-based ELISAs described previously, except IgE myeloma was used as the solid phase immunoadsorbant. […] The inclusion of the Inv domain sequence (SEQ ID NO:78) augmented the immunogenicity, as shown by the enhanced immunogenicity of SEQ ID NO:99 over SEQ ID NO:98.
A general note: An ELISA detects its analyte on a solid surface through an enzyme-linked reagent.

On to “98 (KKKIITITRIITIITTIDGGCGETYQSRVTHPHLPRALMRSTTKC) [compound 98]”, for which the “Log10 ELISA (average for animals of the group)” value is on record as 2.35 Log10 and the No. responding is reported as 3/3.

B1: 99 (peptide)
chain: TAKSKKFPSYTATYQFGGKKKIITITRIITIITTIDGGCGETYQSRVTHPHLPRALMRSTTKC
For B1, the “Log10 ELISA (average for animals of the group)” value was 3.28 Log10 and the No. responding is 3/3.

Values taken from patent US6713301B1, “Artificial T helper cell epitopes as immune stimulators for synthetic peptide immunogens” (United Biomedical, Inc., priority 1998, dated 2004).
